Measured values: US20110112010A1, “OCTANOIC ACID FORMULATIONS AND METHODS OF TREATMENT USING THE SAME” (The Government of the United States of America, as …, priority 2008, published 2011)

What was measured:
[1] = Pharmacokinetics of oral 1-octanol and its metabolite octanoic acid in plasma of adults with Essential Tremor; type: in vivo, human
Description: Subjects: All subjects underwent a routine medical screening and neurological examination. A structured ethanol challenge was carried out to confirm tremors were ethanol-responsive. Subjects were videotaped at 0, 15, 30, 45, 60, and 75-minutes after receiving two servings (50-ml each) of 40% ethanol along with digitized spirography measures. Ethanol-responsive subjects then completed either a dose titration (1-64 mg/kg) inpatient study or a fixed dose (64 mg/kg) inpatient study to characterize the pharmacokinetics of 1-octanol and its predicted primary metabolite octanoic acid (OA). Plasma Sampling: During the inpatient study, subjects received oral 1-octanol followed by collection of plasma samples at the following intervals: 5, 20, 45, 70, 100, 130, 160, 210, 270 and 360-minutes post-dose. Samples were processed then batch analyzed using high-performance liquid chromatography and mass spectrometry methods to measure concentrations of 1-octanol and OA.

[2] = system: Essential Tremor; assay: Tremor assessment by digitized Archimedes spirals after oral 1-octanol; type: in vivo, human
Description: Subjects: All subjects underwent a routine medical screening and neurological examination. A structured ethanol challenge was carried out to confirm tremors were ethanol-responsive. Subjects were videotaped at 0, 15, 30, 45, 60, and 75-minutes after receiving two servings (50-ml each) of 40% ethanol along with digitized spirography measures. Ethanol-responsive subjects then completed either a dose titration (1-64 mg/kg) inpatient study or a fixed dose (64 mg/kg) inpatient study to characterize the pharmacokinetics of 1-octanol and its predicted primary metabolite octanoic acid (OA). Tremor Assessment: To assess efficacy, subjects drew Archimedes spirals at fixed intervals on a digitizing tablet with an overlaid spiral guide. We used in-house analysis software to process the data before conducting a fast Fourier transform of tremor velocity to obtain our frequency and power measures.

[3] = system: Essential Tremor; conditions: humans with Essential Tremor; Bushara 2004, Shill 2004; cited from earlier work
[4] = system: hereditary essential tremor; conditions: patients with hereditary essential tremor; Brain 1994, 117: 805-824; cited from earlier work
[5] = system: harmaline-induced tremor; assay: Harmaline mouse model of essential tremor (motion power percentage); type: in vivo; conditions: male ICR mice, harmaline 20 mg/kg s.c., octanoic acid i.p. in PEG-300
Excerpt: The harmaline model of essential tremor: Harmaline is a beta-carboline alkaloid that produces action tremor on systemic administration to mammals (see Llinas et al., Exp Brain Res 18:69 (1973)). […] Harmaline thus acts within the olivo-cerebellar system to produce tremor and can be used as a model to assess potential ET therapies (see Martin et al., Mov. Disord. 20:298 (2005)).
Animals: Male ICR mice (20-24 g) from Harlan (Indianapolis, Ind.) were housed in groups in standard cages with ad libitum access to commercial rodent diet and water.
Tremor measurement: Motion activity was measured with a Convuls-1 Replacement Sensing Platform model 1335-1A (Columbus Instruments, Columbus, Ohio), a metal platform with a load sensor beneath it, that is connected to a Grass model P511 AC amplifier (Grass Instruments, West Warwick, R.I.) with 1 and 70 Hz filter settings. Digitally recorded motion power was analyzed using Cambridge converter and software. Data was sampled at 128 Hz. The total motion power for each 20-minute epoch was calculated between 0 and 34 Hz (full motion spectrum) and between 10 and 16 Hz (the harmaline tremor frequency bandwidth); and the motion power percentage (10-16 Hz power)/(0-34 Hz power)×100 then calculated. This percentage is expressed as motion power percentage (MPP). […]

Structure (SMILES): CCCCCCCCO [1-octanol]
- 1-octanol concentration as a function of oral dose ([1]; oral 1-octanol dose titration 1-64 mg/kg): remained at very low basal levels until the 64 mg/kg dose
- peak tremor reduction from baseline ([2]; at 120 minutes post-dose): 42%
- persistence of tremor-reducing effect ([2]; last timepoint 360 minutes): > 360 min
- safety and tremor suppression in early human studies [3]: safe and effective at tremor suppression

Structure (SMILES): CCO [ethanol]
- proportion of patients in whom treatment was effective [4]: 50%

Structure (SMILES): CCCCCCCC(=O)O [octanoic acid]
- OA plasma half-life ([1]; human, in vivo, po): approximately 74 minutes
- earliest time at which OA plasma concentrations were detectable post-dose ([1]; human, in vivo, po): 5 min
- persistence of OA plasma levels following administration ([1]; human, in vivo, po): up to 6 hours
- suppression of harmaline-induced tremor [5]: suppressed harmaline-induced tremor in a dose dependent fashion
